From ChEMBL document CHEMBL1201862, “PubChem BioAssay data set” (2004)
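Each compound was tested at five concentrations against cells in 96-well plates for 48 hours. GI50 is the concentration that inhibits growth by half.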 The source made the active and inactive calls. Cut-off read from the data, not from the text of the source: active = GI50 up to about 1.1 µM and inactive = higher.

Assays:
Test in all cases: NCI-60 cell line screen, 48 h
HCT-116 = test system: HCT-116
CAKI-1 = test system: CAKI-1
NCI-H226 = test system: NCI-H226
HOP-62 = test system: HOP-62
OVCAR-5 = test system: OVCAR-5
Malme-3M = test system: Malme-3M
HL-60 = test system: HL-60
K562 = test system: K562
NCI-H522 = test system: NCI-H522
U-251 = test system: U-251
UACC-62 = test system: UACC-62
SNB-19 = test system: SNB-19
OVCAR-3 = test system: OVCAR-3
SF-268 = test system: SF-268
SW-620 = test system: SW-620
A498 = test system: A498
MOLT-4 = test system: MOLT-4
OVCAR-4 = test system: OVCAR-4
RPMI-8226 = test system: RPMI-8226
SK-MEL-28 = test system: SK-MEL-28

Measured: GI50

Nc1cccc2c1C1=NNC(=O)CC1C2 (stereo not given)
inactive: HCT-116 > 100 µM | CAKI-1 > 100 µM | NCI-H226 > 100 µM | HOP-62 > 66.5 µM | OVCAR-5 > 100 µM | Malme-3M > 100 µM | HL-60 > 66.5 µM | K562 > 100 µM | NCI-H522 > 100 µM | U-251 > 100 µM | UACC-62 > 100 µM | SNB-19 > 100 µM | OVCAR-3 > 100 µM | SF-268 > 100 µM | SW-620 > 100 µM | A498 > 100 µM | MOLT-4 > 100 µM | OVCAR-4 > 100 µM | RPMI-8226 > 100 µM | SK-MEL-28 > 100 µM

Cn1c(=O)[nH]c2nncnc2c1=O
inactive: HCT-116 29.2 µM | CAKI-1 11 µM | NCI-H226 5.83 µM | HOP-62 34.4 µM | OVCAR-5 186 µM | Malme-3M 44.7 µM | HL-60 27.9 µM | K562 211 µM | NCI-H522 157 µM | U-251 28.7 µM | UACC-62 44.4 µM | SNB-19 51.2 µM | OVCAR-3 78.9 µM | SF-268 133 µM | SW-620 75 µM | A498 87.1 µM | MOLT-4 181 µM | OVCAR-4 85.5 µM | RPMI-8226 77.4 µM | SK-MEL-28 474 µM

N/N=C1\C(OC(=O)Nc2cccc(Cl)c2)=Nc2ccccc21
inactive: HCT-116 4.67 µM | CAKI-1 4.47 µM | NCI-H226 15.3 µM | HOP-62 2.75 µM | OVCAR-5 14 µM | Malme-3M 12.1 µM | HL-60 13.6 µM | K562 5.92 µM | NCI-H522 3.13 µM | U-251 6.9 µM | UACC-62 7.78 µM | SNB-19 7.13 µM | OVCAR-3 2.6 µM | SF-268 12.1 µM | SW-620 9.12 µM | A498 11.4 µM | MOLT-4 6.49 µM | OVCAR-4 7.33 µM | RPMI-8226 2.9 µM | SK-MEL-28 14.8 µM
